What was measured:
[1] = test system: KRas-mediated phosphorylation of ERK in H460 cells; assay: Inhibition of KRas-mediated phosphorylation of ERK (Cisbio HTRF pERK), H460 cells; assay type: cell-based; settings: Homo sapiens; for inhibition at 0.1 µM: NCI-H460, 3 h, single point, 100 nM compound, 3 hrs; for IC50: NCI-H460, HTRF pERK
In short: (§1)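 H358, H727, H460 and AsPC-1 cells seeded at 6,000/well, treated 3 hrs with 10-dose 3-fold dilutions from 10 uM (0.8% DMSO); 0.2 uM trametinib as min control. Lysed 40 min at 4° C; lysate incubated 2 hrs at room temperature with d2/cryptate antibodies, HTRF read.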

[2] = test system: KRas-mediated phosphorylation of ERK in H358 cells; assay: Inhibition of KRas-mediated phosphorylation of ERK (Cisbio HTRF pERK), H358 cells; assay type: cell-based; settings: Homo sapiens; for inhibition at 0.1 µM: NCI-H358, 3 h, single point, 100 nM compound, 3 hrs; for IC50: NCI-H358, HTRF pERK
In short: as §1

[3] = target: T1, KRas^G12S (Homo sapiens, UniProt P01116, G12S); assay: KRas binding assay (TR-FRET tracer displacement), KRas G12S; settings: for inhibition at 0.01 µM: single point, 10 nM compound, TR-FRET
T1 construct: Biotinylated KRas (corresponding to amino acids 1-169, produced at Accelegan Inc.); biotin (biotinylated); purchased Accelegan Inc

[4] = test system: KRas-mediated phosphorylation of ERK in A549 cells; assay: Inhibition of KRas-mediated phosphorylation of ERK (Cisbio HTRF pERK), A549 cells; assay type: cell-based; settings: Homo sapiens; for inhibition at 0.1 µM: A549, 3 h, single point, 100 nM compound, 3 hrs; for IC50: HTRF pERK
In short: (§2)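 Signal read by HTRF (d2/Cryptate antibody pair, 2 hr room-temperature incubation on lysate). Cells: 6,000 per well, 3 hr compound exposure. Titration: 10 uM highest, 3-fold, 10 points.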

[5] = target: T2, KRas^Q61H (Homo sapiens, UniProt P01116, Q61H); assay: KRas binding assay (TR-FRET tracer displacement), KRas Q61H; settings: for inhibition at 0.01 µM: single point, 10 nM compound, TR-FRET
T2 construct: Biotinylated KRas (corresponding to amino acids 1-169, produced at Accelegan Inc.); biotin (biotinylated); purchased Accelegan Inc

[6] = target: T3, KRas^G13D (Homo sapiens, UniProt P01116, G13D); assay: KRas binding assay (TR-FRET tracer displacement), KRas G13D; settings: for inhibition at 0.01 µM: single point, 10 nM compound, TR-FRET
T3 construct: Biotinylated KRas (corresponding to amino acids 1-169, produced at Accelegan Inc.); biotin (biotinylated); purchased Accelegan Inc

[7] = test system: KRas-mediated phosphorylation of ERK in MKN1 cells; assay: Inhibition of KRas-mediated phosphorylation of ERK (Cisbio HTRF pERK), MKN1 cells; assay type: cell-based; settings: Homo sapiens, MKN-1
In short: (§3)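 Phospho-ERK is quantified by HTRF with the Advanced pERK kit. Cells go in at 6,000/well in RPMI plus 10% FBS overnight at 37° C. under 5% CO2, with a 4-hour covered room-temperature incubation ahead of the read.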

[8] = target: T4, KRas^WT (Homo sapiens, UniProt P01116); assay: KRas binding assay (TR-FRET tracer displacement), KRas WT; settings: for inhibition at 0.01 µM: single point, 10 nM compound, TR-FRET
T4 construct: Biotinylated KRas (corresponding to amino acids 1-169, produced at Accelegan Inc.); biotin (biotinylated); purchased Accelegan Inc

[9] = target: T5, KRas^G12V (Homo sapiens, UniProt P01116, G12V); assay: KRas binding assay (TR-FRET tracer displacement), KRas G12V
T5 construct: Biotinylated KRas (corresponding to amino acids 1-169, produced at Accelegan Inc.); biotin (biotinylated); purchased Accelegan Inc

[10] = test system: KRas-mediated phosphorylation of ERK in AsPC-1 cells; assay: Inhibition of KRas-mediated phosphorylation of ERK (Cisbio HTRF pERK), AsPC-1 cells; assay type: cell-based; settings: Homo sapiens, ASPC1, AsPC-1 cells; HTRF pERK
In short: as §1

[11] = target: T6, KRas^G12D (Homo sapiens, UniProt P01116, G12D); assay: KRas binding assay (TR-FRET tracer displacement), KRas G12D
T6 construct: Biotinylated KRas (corresponding to amino acids 1-169, produced at Accelegan Inc.); biotin (biotinylated); purchased Accelegan Inc

[12] = test system: KRas-mediated phosphorylation of ERK in PSN1 cells; assay: Inhibition of KRas-mediated phosphorylation of ERK (Cisbio HTRF pERK), PSN1 cells; assay type: cell-based; settings: Homo sapiens
In short: as §3

[13] = target: T7, KRas^G12R (Homo sapiens, UniProt P01116, G12R); assay: KRas binding assay (TR-FRET tracer displacement), KRas G12R
T7 construct: Biotinylated KRas (corresponding to amino acids 1-169, produced at Accelegan Inc.); biotin (biotinylated); purchased Accelegan Inc

[14] = test system: KRas-mediated phosphorylation of ERK in HCT116 cells; assay: Inhibition of KRas-mediated phosphorylation of ERK (Cisbio HTRF pERK), HCT116 cells; assay type: cell-based; settings: Homo sapiens; for inhibition at 0.1 µM: HCT-116, 3 h, single point, 100 nM compound, 3 hrs; for IC50: HCT-116, HTRF pERK
In short: as §2

[15] = target: T8, KRas^G12C (Homo sapiens, UniProt P01116, G12C); assay: KRas binding assay (TR-FRET tracer displacement), KRas G12C; settings: for inhibition at 0.01 µM: single point, 10 nM compound, TR-FRET
T8 construct: Biotinylated KRas (corresponding to amino acids 1-169, produced at Accelegan Inc.); biotin (biotinylated); purchased Accelegan Inc

[16] = test system: KRas-mediated phosphorylation of ERK in H727 cells; assay: Inhibition of KRas-mediated phosphorylation of ERK (Cisbio HTRF pERK), H727 cells; assay type: cell-based; settings: Homo sapiens, NCI-H727, H727 cells; HTRF pERK
In short: as §1

[17] = target: T9, KRas^G12A (Homo sapiens, UniProt P01116, G12A); assay: KRas binding assay (TR-FRET tracer displacement), KRas G12A; settings: for inhibition at 0.01 µM: single point, 10 nM compound, TR-FRET
T9 construct: Biotinylated KRas (corresponding to amino acids 1-169, produced at Accelegan Inc.); biotin (biotinylated); purchased Accelegan Inc
T9 sequence (P01116 1-169 isoform P01116-2 G12A): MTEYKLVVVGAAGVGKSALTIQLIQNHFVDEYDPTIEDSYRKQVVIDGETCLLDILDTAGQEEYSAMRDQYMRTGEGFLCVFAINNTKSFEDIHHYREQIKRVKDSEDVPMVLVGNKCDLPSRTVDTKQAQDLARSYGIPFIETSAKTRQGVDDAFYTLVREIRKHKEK

T7 sequence (P01116 1-169 isoform P01116-2 G12R): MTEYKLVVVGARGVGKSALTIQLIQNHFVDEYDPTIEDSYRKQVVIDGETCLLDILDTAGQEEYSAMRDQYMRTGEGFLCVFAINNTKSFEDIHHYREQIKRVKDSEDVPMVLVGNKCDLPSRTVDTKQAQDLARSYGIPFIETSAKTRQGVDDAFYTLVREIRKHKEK
T6 sequence (P01116 1-169 isoform P01116-2 G12D): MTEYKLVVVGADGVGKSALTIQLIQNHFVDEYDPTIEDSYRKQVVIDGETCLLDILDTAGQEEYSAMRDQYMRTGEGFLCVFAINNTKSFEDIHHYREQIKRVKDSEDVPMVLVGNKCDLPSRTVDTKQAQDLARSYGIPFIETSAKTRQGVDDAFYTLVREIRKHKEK
T3 sequence (P01116 1-169 isoform P01116-2 G13D): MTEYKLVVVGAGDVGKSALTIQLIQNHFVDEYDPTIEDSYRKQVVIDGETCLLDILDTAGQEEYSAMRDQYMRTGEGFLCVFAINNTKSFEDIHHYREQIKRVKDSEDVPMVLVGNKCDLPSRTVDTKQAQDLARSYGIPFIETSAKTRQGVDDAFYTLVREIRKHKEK
T8 sequence (P01116 1-169 isoform P01116-2 G12C): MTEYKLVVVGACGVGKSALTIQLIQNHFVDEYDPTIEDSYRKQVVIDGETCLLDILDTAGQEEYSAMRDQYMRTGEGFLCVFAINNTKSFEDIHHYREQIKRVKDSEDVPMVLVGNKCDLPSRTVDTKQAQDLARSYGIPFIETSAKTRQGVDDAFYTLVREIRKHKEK
T5 sequence (P01116 1-169 isoform P01116-2 G12V): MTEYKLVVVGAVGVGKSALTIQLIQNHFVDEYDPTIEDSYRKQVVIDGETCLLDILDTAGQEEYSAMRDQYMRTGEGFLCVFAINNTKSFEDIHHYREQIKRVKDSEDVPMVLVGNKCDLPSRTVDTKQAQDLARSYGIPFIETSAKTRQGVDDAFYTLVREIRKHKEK
T1 sequence (P01116 1-169 isoform P01116-2 G12S): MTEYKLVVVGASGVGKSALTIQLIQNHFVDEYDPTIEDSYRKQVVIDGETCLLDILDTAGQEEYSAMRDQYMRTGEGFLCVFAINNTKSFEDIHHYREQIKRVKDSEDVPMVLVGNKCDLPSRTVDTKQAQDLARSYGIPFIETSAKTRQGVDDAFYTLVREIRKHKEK
T2 sequence (P01116 1-169 isoform P01116-2 Q61H): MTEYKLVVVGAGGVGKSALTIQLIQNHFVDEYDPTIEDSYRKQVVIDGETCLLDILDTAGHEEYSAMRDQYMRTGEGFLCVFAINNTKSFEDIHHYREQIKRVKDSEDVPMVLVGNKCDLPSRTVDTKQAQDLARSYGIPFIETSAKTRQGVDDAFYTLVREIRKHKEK
T4 sequence (P01116 1-169 isoform P01116-2): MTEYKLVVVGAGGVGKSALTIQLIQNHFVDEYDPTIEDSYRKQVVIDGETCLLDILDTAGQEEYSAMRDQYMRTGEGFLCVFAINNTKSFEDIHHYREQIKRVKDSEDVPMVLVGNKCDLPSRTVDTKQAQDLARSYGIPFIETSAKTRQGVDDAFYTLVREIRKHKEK

| SMILES | inhibition at 0.1 µM [1] | IC50 [1] | inhibition at 0.1 µM [2] | IC50 [2] | inhibition at 0.01 µM [3] | inhibition at 0.1 µM [4] | IC50 [4] | inhibition at 0.01 µM [5] | inhibition at 0.01 µM [6] | IC50 [7] | inhibition at 0.01 µM [8] | IC50 [9] | IC50 [10] | IC50 [11] | IC50 [12] | IC50 [13] | inhibition at 0.1 µM [14] | inhibition at 0.01 µM [15] | IC50 [16] | inhibition at 0.01 µM [17] | other results |
| --- | --- | --- | --- | --- | --- | --- | --- | --- | --- | --- | --- | --- | --- | --- | --- | --- | --- | --- | --- | --- | --- |
| Oc1cc(-c2ncc3c(N4CCCC5(CCO5)C4)nc(OC[C@@]45CCCN4C[C@H](F)C5)nc3c2F)c2c(Cl)c(F)ccc2c1 (stereo partly drawn) [Example 773, 5-chloro-6-fluoro-4-(8-fluoro-2-(((2R,7aS)-2-fluorotetrahydro-1H-pyrrolizin-7a(5H)-yl)methoxy)-4-(1-oxa-6-azaspiro[3.5]nonan-6-yl)pyrido[4,3-d]pyrimidin-7-yl)naphthalen-2-ol] | 96% | 10 nM | 99% | 3 nM | 92% | 97% | 8 nM | 95% | 94% | 4 nM | 90% | < 2 nM | 7 nM | 3 nM | 2680 nM | 2 nM | 90% | 95% | 8 nM | 86% | IC50 [14]: 18 nM |
| Oc1cc(-c2ncc3c(N4C[C@@H]5C[C@H](C4)[C@H](O)C5)nc(OC[C@@]45CCCN4C[C@H](F)C5)nc3c2F)c2ccccc2c1 [Example 737, (1R,5R,6R)-3-(8-fluoro-2-(((2R,7aS)-2-fluorohexahydro-1H-pyrrolizin-7a-yl)methoxy)-7-(3-hydroxynaphthalen-1-yl)pyrido[4,3-d]pyrimidin-4-yl)-3-azabicyclo[3.2.1]octan-6-ol] | 27% | – | 8% | – | 60% | 17% | – | 46% | 53% | 9 nM | 44% | 5 nM | 420 nM | 13 nM | 7190 nM | 7 nM | 39% | 53% | 79 nM | 47% | IC50 ([3]; TR-FRET tracer displacement, KRas G12S): 8 nM; IC50 ([5]; TR-FRET tracer displacement, KRas Q61H): 14 nM; IC50 ([6]; TR-FRET tracer displacement, KRas G13D): 12 nM; IC50 ([8]; TR-FRET tracer displacement, KRas WT): 13 nM; IC50 ([15]; TR-FRET tracer displacement, KRas G12C): 10 nM; IC50 ([17]; TR-FRET tracer displacement, KRas G12A): 10 nM |
| CCc1c(F)ccc2cc(O)cc(-c3ncc4c(N5CCCC6(CNS(=O)(=O)N6)C5)nc(OC[C@]56CCCN5[C@H](COC(=O)N(C)C)CC6)nc4c3F)c12 (stereo partly drawn) [Example 716, ((3S,7aR)-7a-(((4-(2,2-dioxido-2-thia-1,3,7-triazaspiro[4.5]decan-7-yl)-7-(8-ethyl-7-fluoro-3-hydroxynaphthalen-1-yl)-8-fluoropyrido[4,3-d]pyrimidin-2-yl)oxy)methyl)hexahydro-1H-pyrrolizin-3-yl)methyl dimethylcarbamate] | 56% | – | 71% | – | 95% | 37% | – | 98% | 98% | 9 nM | 93% | < 2 nM | 39 nM | < 2 nM | 1020 nM | < 2 nM | 34% | 97% | 273 nM | 83% | – |
| CCc1c(F)ccc2cc(O)cc(-c3ncc4c(N5CCCn6nc(C(=O)N(C)C)c(C)c6C5)nc(OC[C@@]56CCCN5C[C@H](F)C6)nc4c3F)c12 [Example 670, 5-(7-(8-ethyl-7-fluoro-3-hydroxynaphthalen-1-yl)-8-fluoro-2-(((2R,7aS)-2-fluorotetrahydro-1H-pyrrolizin-7a(5H)-yl)methoxy)pyrido[4,3-d]pyrimidin-4-yl)-N,N,3-trimethyl-5,6,7,8-tetrahydro-4H-pyrazolo[1,5-a][1,4]diazepine-2-carboxamide] | – | 17 nM | – | 1 nM | 100% | – | 9 nM | 97% | 98% | 2 nM | 98% | < 2 nM | 2 nM | < 2 nM | 4680 nM | < 2 nM | – | 99% | 5 nM | 98% | IC50 [14]: 53 nM |
| CCc1c(F)ccc2cc(O)cc(-c3ncc4c(N5CCCC6(CCS(=O)(=O)N6)C5)nc(OC[C@@]56CCCN5C[C@H](F)C6)nc4c3F)c12 (stereo partly drawn) [Example 643, 7-(7-(8-ethyl-7-fluoro-3-hydroxynaphthalen-1-yl)-8-fluoro-2-(((2R,7aS)-2-fluorohexahydro-1H-pyrrolizin-7a-yl)methoxy)pyrido[4,3-d]pyrimidin-4-yl)-2-thia-1,7-diazaspiro[4.5]decane 2,2-dioxide] | 100% | 5 nM | – | 2 nM | 98% | – | 16 nM | 100% | 99% | 4 nM | 98% | < 2 nM | 6 nM | < 2 nM | 625 nM | < 2 nM | 87% | 99% | 21 nM | 88% | IC50 [14]: 13 nM |
| CCc1c(F)ccc2cc(O)cc(-c3ncc4c(N5CC6CCC(C5)C6C#N)nc(OC[C@@]56CCCN5C[C@H](F)C6)nc4c3F)c12 (stereo partly drawn) [Example 559, 3-(7-(8-ethyl-7-fluoro-3-hydroxynaphthalen-1-yl)-8-fluoro-2-(((2R,7aS)-2-fluorohexahydro-1H-pyrrolizin-7a-yl)methoxy)pyrido[4,3-d]pyrimidin-4-yl)-3-azabicyclo[3.2.1]octane-8-carbonitrile] | 89% | – | 98% | – | 82% | 75% | – | 82% | 82% | 5 nM | 73% | < 2 nM | 105 nM | 15 nM | 9490 nM | < 2 nM | 55% | 89% | 20 nM | 70% | – |
| CCc1c(F)ccc2cc3[nH]ncc3c(-c3ncc4c(N5CCC[C@@](C)(O)C5)nc(OC[C@@]56CCCN5C[C@H](F)C6)nc4c3F)c12 [Example 776, (3R)-1-(7-(5-ethyl-6-fluoro-1H-benzo[f]indazol-4-yl)-8-fluoro-2-(((2R,7aS)-2-fluorohexahydro-1H-pyrrolizin-7a-yl)methoxy)pyrido[4,3-d]pyrimidin-4-yl)-3-methylpiperidin-3-ol] | – | 29 nM | 84% | 18 nM | 83% | 60% | 18 nM | 80% | 84% | 16 nM | 78% | 2 nM | 18 nM | 2 nM | 9010 nM | 4 nM | – | 85% | 61 nM | 80% | IC50 [14]: 75 nM |
